Source: patent publication US20190388495A1, “Pharmaceutical Composition for Preventing or Treating Hypersensitivity Immune Disease, and Method for Producing Same” (QURATIS INC., priority 2017, published 2019)

These molecules were tested on plasmacytoid dendritic cells (assay: IL-10 secretion from plasmacytoid dendritic cells induced with various toll-like receptor agonists, ELISA (Example 3)). Conditions: stimulated with ODN1826 1 μg/ml, 24 hours; vs non-treatment.
Format: cell-based, C57BL/6 mice
Description: In order to check the immune tolerance inducing effect of various toll-like receptor agonists, differentiation into the plasmacytoid dendritic cells was induced by the same method as in Example 1. Ligands listed in Table 2 were used as the toll-like receptor agonist. From the cells obtained after 8 days of culture, the plasmacytoid dendritic cells were separated at a purity equal to or greater than 85% by a plasmacytoid dendritic cell separation kit (Miltenyi Biotec, Auburn, Calif.) and a magnetic cell sorting system (Vario MACS: Miltenyi Biotec, Auburn, Calif.). The separated cells (5×10^5 cells/ml) were inoculated into a 48 well plate. ODN1826 (1 μg/ml) was applied thereto and the cells were cultured for 24 hours. Then, supernatant was separated. The secretion pattern of the immunosuppressive cytokine IL-10 was then checked by ELISA (enzyme linked immunosorbent assay).

Pam3 [TLR2 agonist] was tested. Which “expression level of IL-10 from plasmacytoid dendritic cells differentiated via treatment with the agonist” value did it give?
Its value is “significantly increased”.

CC(C)Cn1cnc2c(N)nc3ccccc3c21 [TLR7 agonist, Imiquimod] was tested. Which “expression level of IL-10 from plasmacytoid dendritic cells differentiated via treatment with the agonist” value did it give?
Its value is “significantly increased”.

LPS [TLR4 agonist] was tested. Which “expression level of IL-10 from plasmacytoid dendritic cells differentiated via treatment with the agonist” value did it give?
The value was “significantly increased”.
